Reference: PubChem BioAssay AID1996
≈ marks a conversion by molar mass, not a printed value.

settings: buffer; pH 7.4; 200.0 µM

Compound | solubility kinetic [µg/mL]
Cc1[nH]c2ccccc2c1SCC(=O)NC1CCCCC1 | > 45.4
C=CCS(=O)(=O)N1CCCC(N(C)CCc2ccc(OC)c(OC)c2)C1 (centres undefined) | 44.4 (≈ 116 µM)
CC(=O)c1ccc(C(=O)NC2CCCN(Cc3ccccc3F)C2)cc1 (centres undefined) | > 53.2
COc1ccc(NS(=O)(=O)c2cc(NC(=O)c3ccc(Cl)cc3)ccc2N2CCOCC2)cc1 | 1.5 (≈ 2.99 µM)
O=C1OCC(c2ccc(Cl)s2)=C1c1ccccc1[N+](=O)[O-] | 22.3 (≈ 69.3 µM)
Cc1sc2nc(CC(=O)N3CCCC3)[nH]c(=O)c2c1C | > 43.7
CCOc1nc(-c2ccccc2Cl)nc2ccccc12 | 1.4 (≈ 4.92 µM)
CCCc1cc(=O)[nH]c(SCC(=O)Nc2cc(S(=O)(=O)N(CC)c3ccccc3)ccc2Cl)n1 | 9.8 (≈ 18.8 µM)
O=S(=O)(c1ccc(Cl)cc1)N1CCN(c2ccccn2)CC1 | 0.5 (≈ 1.48 µM)
Cc1cccc(C(=O)NCC(=O)OCC(=O)c2ccc(Br)s2)c1 | > 59.4
COc1ccc(CC(=O)O/N=C(\N)c2ccncc2)cc1 | 39.9 (≈ 140 µM)
O=S(=O)(c1ccc(Cl)s1)N1CCCCC1 | 22 (≈ 82.8 µM)
CCC(=O)Nc1ccc(N/C(N)=N/c2nc(C)cc(C)n2)cc1 | 36.1 (≈ 116 µM)
O=C(Nc1sc2c(c1C(=O)O)CCCC2)c1ccc(F)cc1 | 41.2 (≈ 129 µM)
C=CCNC(=S)Nc1ccc2cn[nH]c2c1 | > 34.8
O=C(Cc1ccccc1F)N1CCN(CC(=O)N2CCCC2)CC1 | > 50
CCOC(=O)C1CCCN(CC(=O)Nc2cc(C)cc(C)c2)C1 (centres undefined) | 29.3 (≈ 92 µM)
COc1ccc(C(=O)N2CCN(c3ccccn3)CC2)cc1[N+](=O)[O-] | 49.5 (≈ 145 µM)
NS(=O)(=O)c1ccc(CCNC(=O)c2ccco2)cc1 | > 44.1
O=C(c1ccc(COCC(F)(F)F)o1)N1CCCC1 | 40.3 (≈ 145 µM)
CCOc1ccccc1NC(=O)c1ccc(OCC(=O)N2CCOCC2)c(OC)c1 | > 62.2
COc1ccc(CN2C(=O)CNC2=S)cc1 | > 35.4
COc1ccc(N2C(=O)CCC2(C(N)=O)c2ccccc2)cc1 (centres undefined) | > 46.6
Cc1cccc(Oc2c([N+](=O)[O-])c(=O)n(C)c3ccccc23)c1 | 6.6 (≈ 21.3 µM)

Compound | solubility kinetic [µg/mL]
CCCc1nc2cc(Cl)c([N+](=O)[O-])cc2o1 | 5 (≈ 20.8 µM)
C=CCC(=O)N1CCCC(CO)(Cc2ccc(F)cc2F)C1 (centres undefined) | 41.8 (≈ 135 µM)
CC(Oc1ccc(C#N)cc1)C(=O)NC1CCCC1 (centres undefined) | > 38.7
Cc1cccnc1NC(=O)C(C)N1C(=O)c2ccccc2C1=O (centres undefined) | > 46.4
CSc1ccccc1NC(=O)COC(=O)c1ccccc1O | 2 (≈ 6.3 µM)
NC(=O)c1ccc(N=C2C(=O)Nc3ccc([N+](=O)[O-])cc32)cc1 | 13.1 (≈ 42.2 µM)
Cc1ccccc1C(=O)NCCNC(=O)c1ccco1 | > 40.8
O=c1[nH]c(=O)n(-c2ccc(Br)cc2)c(O)c1C=NCCN1CCCCC1 | 60.5 (≈ 144 µM)
CC(C)CN1CCN(Cc2cccc3c2OCO3)CC1CCO (centres undefined) | > 48.1
O=C(CSc1ncnc2sc3c(c12)CCCC3)NC1CCS(=O)(=O)C1 (centres undefined) | 18.6 (≈ 46.8 µM)
CC(C)CCN1CCN(Cc2cccs2)CC1CCO (centres undefined) | 39.8 (≈ 134 µM)
C=CCNC(=O)COc1ccccc1C#N | > 32.4
CC(C)(C)c1ccc(Cn2c(=O)cnc3ccccc32)cc1 | 0.4 (≈ 1.37 µM)
O=C(CSc1nc2sc3c(c2c(=O)[nH]1)CCC3)NCCO | > 48.8
Cc1ccc(SCCC(=O)NCc2ccccn2)cc1 | > 43
N#Cc1ccc(OCC(=O)N2CCCC2=O)cc1 | > 36.6
O=C(N/C=C/c1ccco1)Nc1cccc(Cl)c1 | 31.3 (≈ 119 µM)
Cc1ccc(N(Cc2cc(=O)[nH]c3ccccc23)C(=O)C(C)C)c(C)c1 | 17.7 (≈ 50.8 µM)
O=C(COC(=O)C1CC2C=CC1C2)Nc1c(Br)cc([N+](=O)[O-])cc1Br (centres undefined) | 57.2 (≈ 121 µM)
CCOC(=O)COc1c(Cl)cc(/C=C2\N=C(C)OC2=O)cc1OC | 46.5 (≈ 131 µM)
CCCCN(CC)C(=O)c1cc2cc3ccc(Cl)cc3nc2o1 | 3.3 (≈ 9.98 µM)
CCOC(=O)COn1c(=O)c(-c2ccccc2)[n+]([O-])c2ccccc21 | 35.2 (≈ 103 µM)
Cc1ccccc1C(=O)/C=C1/SCC(=O)N1C | > 37.1
COc1ccc(NC(=S)NCc2cccs2)cc1OC | 19.6 (≈ 63.5 µM)

Compound | solubility kinetic [µg/mL]
Cc1ccc(Cn2c(=S)[nH]c3ccccc3c2=O)cc1 | < 0.3
O=C(Oc1ccccc1)N1CCN(C(=O)c2ccco2)CC1 | > 45
CCN(CC)c1ccc(CNc2nc3ccccc3n2C(C)C)cc1 | 0.3 (≈ 0.892 µM)
CNC(=O)NC(=O)CN1C(=O)NC2(CCOc3ccccc32)C1=O (centres undefined) | > 49.8
Cc1cc(C)c2c(=O)cc(C(=O)NCc3ccccc3)oc2c1 | < 0.7
N#C/C(=C\c1ccc(N2CCCCC2)o1)C(N)=O | > 36.8
O=C1c2ccccc2C(=O)N1Cc1cc(Cl)c(O)c([N+](=O)[O-])c1 | > 49.9
CCCc1ccc(S(=O)(=O)NCC2CCCN2CC)cc1 (centres undefined) | 31 (≈ 99.9 µM)
N#CCCN(Cc1ccccc1)C(=O)Nc1ccccc1 | > 41.9
O=C(Nc1ccc(Cl)c(Cl)c1)NC1CCS(=O)(=O)C1 (centres undefined) | 43.9 (≈ 136 µM)
CCOC(=O)C1CCN(CCC(=O)Nc2ccc(C)c(C)c2)CC1 | > 49.9
CCN(C(=O)CN1CCCCCC1)c1c(N)n(Cc2ccccc2)c(=O)[nH]c1=O | > 59.9
Cc1ccc(C(=O)NC2CCCCNC2=O)cc1C (centres undefined) | > 39.1
O=C(COc1ccc(Cl)cc1[N+](=O)[O-])N1CCCCCC1 | > 46.9
C/C(=N/OC(=O)c1ccc(Cl)cc1Cl)c1oc(C)nc1C | 1.9 (≈ 5.81 µM)
Cc1ccc(-n2ccnc2SCC(=O)O)cc1C | > 39.3
Cc1ccccc1COc1ccc(/C=C(\C#N)C(N)=O)cc1 | < 0.3
NC(=O)C1CCN(CC(O)CSc2ccc(F)cc2)CC1 (centres undefined) | 37.3 (≈ 119 µM)
CC1CN(Cc2ccccc2)C(C)CC1O (centres undefined) | > 32.9
Cc1cn(CCC(=O)Nc2ccccc2N2CCOCC2)c2ccccc12 | 27.5 (≈ 75.7 µM)
CCc1ccc(NC(=O)CCC(=O)c2ccc(C)cc2)cc1 | 4.3 (≈ 14.6 µM)
O=C(CSc1ncnc2ccccc12)Nc1ccc2c(c1)OCCO2 | 1.3 (≈ 3.68 µM)
N#Cc1sc2nccc(Nc3ccccc3)c2c1N | < 0.1
Cc1cc(OCCn2ccnc2)cc(C)c1Cl | 30.8 (≈ 123 µM)

Compound | solubility kinetic [µg/mL]
Cc1ccc2c(COC(=O)C3CC(=O)N(c4ccc5c(c4)OCCO5)C3)cc(=O)oc2c1 (centres undefined) | 19.6 (≈ 45 µM)
Cl.OC(c1ccc(Cl)cc1)C(CN1CCOCC1)c1ccccc1 (centres undefined) | > 55.2
COc1cc2c(cc1OC)CN(C1CCC(C)CC1)CC2 (centres undefined) | 34.7 (≈ 120 µM)
O=C(NC1CCNCC1)C1CC1 | > 25.2
O=S(=O)(NCCCN1CCOCC1)c1ccc(Cl)s1 | 48.4 (≈ 149 µM)
Cc1cc(NC(=O)CSc2nc3ccccc3n2CC(C)C)no1 | 7.3 (≈ 21.2 µM)
O=[N+]([O-])c1ccccc1-c1ccc(C(=S)N2CCCC2)o1 | 9.4 (≈ 31.1 µM)
COc1ccc(/C=C/c2noc(-c3ccccc3OC(C)=O)n2)cc1 | 0.6 (≈ 1.78 µM)
N#CC(C#N)=C(N)Nc1cccc(Cl)c1 | 30.7 (≈ 140 µM)
O/N=C/c1ccnc(SCc2ccccc2)n1 | 31.4 (≈ 128 µM)
O=C(NC(=S)Nc1ccc(F)c(Cl)c1)C1CC1 | 2.3 (≈ 8.43 µM)
CN=C(C)/C(C(=O)OC)=C(/O)c1c(F)cccc1F | 25.9 (≈ 96.2 µM)
O=C1CCN(Cc2ccccc2)C(=O)N1c1ccccc1 | > 42
O=c1[nH]c2ccccc2c2oc(CCl)nc12 | 12.5 (≈ 53.3 µM)
Cc1cc(C(=O)NCCc2ccccc2)c2cc(F)ccc2n1 | 14.9 (≈ 48.3 µM)
CCc1ccc(OCC(=O)N2CCc3ccccc32)cc1 | 0.9 (≈ 3.2 µM)
CC(OC(=O)c1ccc(Cl)cc1O)C(=O)NCCC1=CCCCC1 (centres undefined) | 32.9 (≈ 93.5 µM)
CCOC(=O)c1c(NC(=O)COC(=O)C2CC2C)sc(C)c1C (centres undefined) | < 0.7
COc1ccc(-c2nc3ccc(C)cc3c(=O)o2)cc1OC | < 0.6
O=S(=O)(NCCCCNS(=O)(=O)c1ccc(F)cc1)c1ccc(F)cc1 | 0.7 (≈ 1.73 µM)
CC(CN1CCCC1)OC(=O)c1ccc(Cl)cc1Cl.Cl (centres undefined) | > 50.8
Cc1ccc(SCCNC(=O)c2ccc([N+](=O)[O-])c(C)c2)cc1 | 9.5 (≈ 28.8 µM)
COc1ccccc1N1CCN(C(=O)c2cc(C)oc2C)CC1 | > 47.2
O=C(O)c1ccc(S(=O)(=O)NCc2cccnc2)cc1 | > 43.8

Compound | solubility kinetic [µg/mL]
CN(C)c1cc(-c2cccc([N+](=O)[O-])c2)oc(=O)c1Cl | 1.3 (≈ 4.41 µM)
O=C(CSC(=S)N1CCCC1)NCCc1ccccc1 | > 46.3
Cc1ccc(CNC(=O)C(Cc2ccccc2)n2cccc2)cc1 (centres undefined) | 5.3 (≈ 16.6 µM)
Cc1ccc(Cn2c(=O)oc3ccccc32)cc1 | 1 (≈ 4.18 µM)
COc1ccc(C(=O)O)cc1S(=O)(=O)N(C)CCc1ccccn1 | > 52.6
Cc1cc(F)ccc1NC(=O)C1CSC2(C)CCC(=O)N12 (centres undefined) | > 46.3
CC1CCCC(C)N1C(=O)COC(=O)c1cc(=O)[nH]c2ccccc12 (centres undefined) | > 51.4
O=C(COc1ccccc1N1C(=O)C2C3C=CC(C3)C2C1=O)c1ccccc1 (centres undefined) | > 56
CC(=O)Nc1ccc(OCc2ccc3c(c2)OCO3)cc1 | 15.4 (≈ 54 µM)
Cc1ccc(-c2cc(C(=O)NCC(c3ccccc3)N(C)C)c3ccccc3n2)o1 (centres undefined) | 31.1 (≈ 77.8 µM)
O=C(NCCCN1CCOCC1)C(c1ccccc1)c1ccccc1 | > 50.8
Cc1nc(NC(=O)COC(=O)CCc2ccccc2)c(Cl)cc1Cl | 21.8 (≈ 59.4 µM)
CC(=O)N(OCc1ccc(OC(C)C)c(Cl)c1)C(C)=O | 38.1 (≈ 127 µM)
O=C(NCc1cccnc1)c1ccccc1NC(=O)c1c(F)cccc1F | > 55.1
CCCCN(C)S(=O)(=O)c1cc2c3c(c1)CCC(=O)N3CCC2 | 48.6 (≈ 144 µM)
CCOC(=O)c1nc(NCc2ccccc2)c2ccccc2n1 | 27.4 (≈ 89.1 µM)
Cc1nc2c(C(F)(F)F)cccc2c2c1CCS2 | < 0.6
COc1ccc(OC)c(CN2CCN(C(=O)CNC(=O)c3ccccc3F)CC2)c1 | 59.9 (≈ 144 µM)
COc1ccc(-n2cnnc2SCC(=O)NC2CCCCC2)cc1 | > 52
Cc1ccccc1OCCCCCCN1CCNCC1.O=C(O)C(=O)O | 49.5
CCOC(=O)c1sc(NC(=O)CN2CCN(c3ccc(OC)cc3)CC2)nc1C | 15.3 (≈ 36.6 µM)
CC(=O)OCC(=O)Nc1ccc(SC(F)F)cc1 | > 41.3
FC(F)(F)C1=Nc2cccc3cccc(c23)N1 | 13.5 (≈ 57.2 µM)
